Several values for one entry are separate records, joined by “and”; a condition that tells them apart may be missing. Equal entries are not always repeated.
Target: PFTAIRE1 (Homo sapiens (Human), UniProt O94921)
Experimental: The cells were harvested and lysed. The lysates were directly labeled with an ATP-biotin probe. Bound kinases were identified and quantitated by ACTIVX as described in Patricelli et al., Biochemistry, 2007, 46(2): 350-358. The compounds were tested in duplicates against duplicate or quadruplicate control samples.

PFTAIRE1, sequence (O94921 whole entry, looked up): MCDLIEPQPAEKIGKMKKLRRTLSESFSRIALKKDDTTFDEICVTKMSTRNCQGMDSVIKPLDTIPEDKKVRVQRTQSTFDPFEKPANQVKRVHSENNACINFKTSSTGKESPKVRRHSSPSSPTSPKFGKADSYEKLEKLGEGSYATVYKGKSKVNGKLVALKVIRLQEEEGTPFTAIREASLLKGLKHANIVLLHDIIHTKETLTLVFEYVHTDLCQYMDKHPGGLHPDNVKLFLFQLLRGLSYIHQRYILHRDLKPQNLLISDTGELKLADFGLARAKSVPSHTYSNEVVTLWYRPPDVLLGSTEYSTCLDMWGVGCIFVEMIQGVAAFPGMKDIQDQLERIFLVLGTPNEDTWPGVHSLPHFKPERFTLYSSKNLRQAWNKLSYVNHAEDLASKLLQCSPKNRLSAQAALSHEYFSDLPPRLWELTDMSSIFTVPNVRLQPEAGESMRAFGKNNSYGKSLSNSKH

Compound: C=CC(=O)N1CC[C@@H](Nc2nccc(Nc3ncc(C(=O)Nc4c(C)cccc4C)s3)n2)C1 [Example I-4]
- % change of MS signal compared to control sample: 15.3% and 6.3%
